# pIC50: −log10 of the molar value.
# What was measured:
# Type in all cases: cell-based
# phospho-GSK3 (Ser9) = assay: Cellular pGSK3 assay (phospho-GSK3 ELISA); conditions: Homo sapiens, MCF7 cells, 48 h incubation, read-out: Cellular pGSK3 pathway assay
# Procedure: In order to study the cellular activity of the compounds according to the present invention, an ELISA-based assay has been established for the phosphorylated protein glycogen synthetase kinase 3 (GSK3). The assay is based on a solid phase sandwich ELISA that detects endogenous levels of phosphorylated GSK3 using a phospho-GSK3 (Ser9) specific antibody (BioSource International, Inc.; Catalog #KHO0461). After incubation with cell lysates, the coated antibody captures the phosphorylated GSK3 protein. Following extensive washing, GSK3 polyclonal antibody is added to detect the captured phospho-GSK3 protein. Secondary antibody (anti-rabbit IgG-HRP) is then used to recognize the bound detection antibody. After the second incubation and washing to remove all the excess anti-rabbit IgG-HRP, a substrate solution is added, which is acted upon by the bound enzyme to produce color. The intensity of this colored product is directly proportional to the concentration of GSK-3β [pS9] present in the original specimen. MCF7 cells (ATCC HTB-22) were seeded into 96 well fate bottom plates at a density of 10000 cells/well. After 24 h 1 μl each of the compound dilutions (test compounds were dissolved as 10 mM solutions in dimethylsulfoxide (DMSO) and subsequently diluted) were added into each well of the 96 well plates and incubated for 48 h at 37° C. in a humidified atmosphere containing 5% CO2. Cells were harvested and lysed in cell extraction buffer (10 mM Tris, pH 7.4, 100 mM NaCl, 1 mM EDTA, 1 mM EGTA, 1 mM NaF, 20 mM Na4P2O7, 2 mM Na3VO4, 1% Triton X-100, 10 vol % glycerol, 0.1 vol % SDS, 0.5 vol % deoxycholate, 1 mM phenylmethylsulfonylfluoride (PMSF)). The lysate were centrifuged for 10 min. at 4° C. and the supernatant were transferred to a new tube. 50 μl of sample diluent (standard diluent buffer, Biosource) were added and 100 μl of cell lysate transferred into the tube and vortexed. 100 μl of each diluted cell lysate were added to the appropriate ELISA well plate and incubated for 3 h at room temperature. The plates were washed 4 times with 1× wash buffer (Biosource). 50 μl of detection antibody (GSK3 (Ser9) detection antibody; BioSource) were added to each well and incubated for 30 min. at room temperature. The washing procedure was repeated between each step. 100 μl of HRP-linked secondary antibody (anti-mouse IgG HRP-linked antibody) were added to each well and incubated for 30 min. at room temperature. 100 μl of TMB substrate (0.05 vol % 3,3′,5,5′ tetramethylbenzidine, 0.1 vol % hydrogen peroxide, complex polypeptides in a buffered solution; Biosource) were added to each well and incubated for 30 min. at room temperature. Finally 100 μl of Stop solution (0.05 vol % α and β unsaturated carbonyl compound) were added to each well and the plate were shaked gently for a few seconds. The absorbance was measured at λ=450 nm (Wallac Victor2; Perkin Elmer, USA) within 30 min. after adding the stop solution.
# The analysis of the data was performed using a statistical program (Excel; Microsoft, USA) and the IC50 of pGSK3 inhibition was determined.
# phospho-Akt (Ser473) = assay: Cellular PI3K/Akt pathway assay (phospho-Akt ELISA); conditions: Homo sapiens, MCF7 cells, β-Heregulin stimulated, 48 h incubation
# Excerpt: Cellular PI3K/Akt Pathway Assay
# In order to study the cellular activity of the compounds according to the present invention, an Enzyme Linked Immunosorbent Assay (ELISA)-based assay has been used specific phospho-AKT. The assay is based on a Sandwich ELISA kit (PathScan™ Phospho-Akt1 (Ser473); Cell Signaling, USA; #7160). The ELISA Kit detects endogenous levels of phosphorylated Akt protein. A phospho-Akt (Ser473) antibody (Cell Signaling, USA; #9271) has been coated onto the microwells. After incubation with cell lysates, the coated antibody captures the phosphorylated Akt protein. Following extensive washing, Akt1 monoclonal antibody (Cell Signaling, USA; #2967) is added to detect the captured phospho-Akt1 protein. HRP-linked anti-mouse antibody (HRP: horseradish peroxidase; Cell Signaling, USA; #7076) is then used to recognize the bound detection antibody. HRP substrate (=3,3′,5,5′-tetramethylbenzidine (TMB); Cell Signaling, USA; #7160) is added to develop colour. The magnitude of optical density for this developed color is proportional to the quantity of phosphorylated Akt protein.
# MCF7 cells (ATCC HTB-22) are seeded into 96 well fate bottom plates at a density of 10000 cells/well. 24 hours after seeding, the cells are serum starved using low-serum medium (IMEM media including 0.1% charcoal treated FCS (FCS: fetal calf serum)). After 24 hours 1 μl each of the compound dilutions (test compounds were dissolved as 10 mM solutions in dimethylsulfoxide (DMSO) and subsequently diluted) are added into each well of the 96 well plates and incubated for 48 h at 37° C. in a humidified atmosphere containing 5% CO2. To stimulate Akt phosphorylation, β-Heregulin (20 ng/ml β-HRG) is added in parallel to the compounds. Wells containing unstimulated control cells (no β-Heregulin stimulation) are incubated with or without the diluted compound. Wells containing untreated control cells (no compound) are filled with medium containing 0.5% v:v DMSO and are or are not stimulated with β-Heregulin.
# Cells are harvested and lysed with brief sonification in 1× cell lysis buffer (20 mM Tris (pH7.5), 150 mM NaCl, 1 mM ethylene diaminetetraacetate (EDTA), 1 mM ethylene glycolbis(2-aminoethyl)-N,N,N′,N′-tetraacetic acid (EGTA), 1 vol % Triton X-100, 2.5 mM sodium pyrophosphate, 1 mM β-glycerolphosphate, 1 mM Na3VO4, 1 μg/ml leupeptin). The lysate is centrifuged for 10 min. at 4° C. and the supernatant is transferred to a new tube. 100 μl of sample diluent (0.1 vol % Tween-20, 0.1 vol % sodium azide in phosphate buffered saline (PBS)) are added to a microcentrifuge tube and 100 μl of cell lysate are transferred into the tube and vortexed. 100 μl of each diluted cell lysate are added to the appropriate ELISA well, and incubated overnight at 4° C. The plates are washed 4 times with 1× wash buffer (1 vol % tween-20, 0.33 vol % thymol, in PBS). Next 100 μl of detection antibody (Akt1 (2H10) monoclonal detection antibody; Cell Signaling, USA; #2967) are added to each well and incubation continued for 1 h at 37° C. The washing procedure is repeated between each step. 100 μl of secondary antibody (anti-mouse IgG HRP-linked antibody; Cell Signaling, USA; #7076) are added to each well and incubated for 30 min. at 37° C. Than, 100 μl of TMB substrate (0.05% 3,3′,5,5′ tetramethylbenzidine, 0.1% hydrogen peroxide, complex polypeptides in a buffered solution; Cell Signaling, USA; #7160) are added to each well and incubated for 30 min. at 25° C. Finally 100 μl of STOP solution (0.05 vol % α and β unsaturated carbonyl compound) are added to each well and the plate are shaked gently. The absorbance is measured at λ=450 nm (Wallac Victor2; Perkin Elmer, USA) within 30 min. after adding the STOP solution. The analysis of the data is performed using a statistical program (Excel; Microsoft, USA). Preferred compounds show an inhibitory activity towards Akt phosphorylation below 10 μM.
# A549 cells = assay: Cellular proliferation/cytotoxicity assay (Alamar Blue), A549; conditions: Homo sapiens, 72 h, Alamar Blue (Resazurin), read-out: Anti-proliterative/Cytotoxic activity (A549 cells)
# In short: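 OvCAR3 (10000 cells/well) or A549 (2000 cells/well) were dosed 24 h after seeding and exposed for 72 h at 37 °C, 5% CO2, in duplicate or more. Resazurin was added for 4 h and fluorescence read at 544/590 nm. Viability is relative to untreated 0.5% DMSO controls, with IC50 by non-linear regression.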
pIC50 (phospho-GSK3 (Ser9)),pIC50 (phospho-Akt (Ser473)),Structure (SMILES),pIC50 (A549 cells)
5.00 to 6.00,< 5.00,"Cc1c(-c2ccccc2)c(-c2ccc(CN3CCC(c4n[nH]c(-c5ccccn5)n4)CC3)cc2)nc2nccn12 [Example 27, 5-methyl-6-phenyl-7-(4-{[4-(5-pyridin-2-yl-1H-1,2,4-triazol-3-yl)piperidin-1-yl]methyl}phenyl)imidazo[1,2-a]pyrimidine]",–
5.00 to 6.00,–,"CC(C)c1nc2nc(-c3ccc(CN4CCC(c5n[nH]c(-c6ccccn6)n5)CC4)cc3)c(-c3ccccc3)cn2n1 [Example 28, 2-Isopropyl-6-phenyl-5-(4-{[4-(5-pyridin-2-yl-1H-1,2,4-triazol-3-yl)piperidin-1-yl]methyl}phenyl)[1,2,4]triazolo[1,5-a]pyrimidine]",> 5.00
5.00 to 6.00,–,"COc1c(-c2ccccc2)c(-c2ccc(CN3CCC(c4n[nH]c(-c5ccccn5)n4)CC3)cc2)nc2ccnn12 [Example 29, 7-Methoxy-6-phenyl-5-(4-{[4-(5-pyridin-2-yl-1H-1,2,4-triazol-3-yl)piperidin-1-yl]methyl}phenyl)pyrazolo[1,5-a]pyrimidine]",< 5.00

# Source: patent US8614218B2, “Fused bicyclic pyrimidines” (Bayer Intellectual Property GmbH, priority 2007, dated 2013)
